Converted amounts (≈) assume the structure as drawn. Each block holds one compound with its values, some of them ahead of it.
How the values were obtained:
Thermodynamic solubility = format: physicochemical; conditions: thermodynamic from solid
[1] = Excretion/elimination of 14C-labeled leflutrozole after oral dosing; format: in vivo; conditions: female rats
CYP3A4/5 = experiment: CYP inhibition, pooled human liver microsomes, probe substrates; format: in vitro ADME; conditions: up to 100 μM
[2] = Cellular transport by Caco-2 assay; format: in vitro ADME, humans; conditions: human
Description: (§1) The ratio of B-A/A-B is 0.43.

Caco-2 cell model = experiment: Cellular transport by Caco-2 assay; format: in vitro ADME, humans
Description: as §1

[3] = biological target: T1, breast cancer resistance protein (Homo sapiens, UniProt Q9UNQ0); experiment: Breast cancer resistance protein inhibition; format: in vitro ADME; conditions: at concentrations above 200 μM
T1 sequence (Q9UNQ0 1-655): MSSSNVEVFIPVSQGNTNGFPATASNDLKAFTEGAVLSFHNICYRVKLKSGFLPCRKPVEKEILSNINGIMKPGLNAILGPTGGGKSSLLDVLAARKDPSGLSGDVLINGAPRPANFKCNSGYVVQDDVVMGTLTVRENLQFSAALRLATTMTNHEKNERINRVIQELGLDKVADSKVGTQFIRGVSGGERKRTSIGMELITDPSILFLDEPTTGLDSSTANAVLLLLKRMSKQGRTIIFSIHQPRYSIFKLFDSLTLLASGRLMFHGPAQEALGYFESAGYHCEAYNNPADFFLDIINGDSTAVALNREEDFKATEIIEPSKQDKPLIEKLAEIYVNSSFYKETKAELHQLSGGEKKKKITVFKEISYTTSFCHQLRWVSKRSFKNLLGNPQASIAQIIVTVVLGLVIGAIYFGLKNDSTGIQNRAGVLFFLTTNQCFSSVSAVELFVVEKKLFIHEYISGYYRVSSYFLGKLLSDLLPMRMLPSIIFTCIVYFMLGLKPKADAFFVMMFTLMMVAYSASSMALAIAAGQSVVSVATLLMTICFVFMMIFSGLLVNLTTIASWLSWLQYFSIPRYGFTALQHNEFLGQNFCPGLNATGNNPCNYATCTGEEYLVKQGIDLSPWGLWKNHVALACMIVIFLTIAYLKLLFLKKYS

CYP2C9 = biological target: T2, CYP2C9 (Homo sapiens, UniProt P11712); experiment: CYP inhibition, pooled human liver microsomes, probe substrates; format: in vitro ADME; conditions: up to 100 μM
T2 construct: assessed by pooled human liver microsomes using enzyme selective probe substrates; from tissue; host or cells: pooled human liver microsomes
T2 sequence (P11712 whole entry): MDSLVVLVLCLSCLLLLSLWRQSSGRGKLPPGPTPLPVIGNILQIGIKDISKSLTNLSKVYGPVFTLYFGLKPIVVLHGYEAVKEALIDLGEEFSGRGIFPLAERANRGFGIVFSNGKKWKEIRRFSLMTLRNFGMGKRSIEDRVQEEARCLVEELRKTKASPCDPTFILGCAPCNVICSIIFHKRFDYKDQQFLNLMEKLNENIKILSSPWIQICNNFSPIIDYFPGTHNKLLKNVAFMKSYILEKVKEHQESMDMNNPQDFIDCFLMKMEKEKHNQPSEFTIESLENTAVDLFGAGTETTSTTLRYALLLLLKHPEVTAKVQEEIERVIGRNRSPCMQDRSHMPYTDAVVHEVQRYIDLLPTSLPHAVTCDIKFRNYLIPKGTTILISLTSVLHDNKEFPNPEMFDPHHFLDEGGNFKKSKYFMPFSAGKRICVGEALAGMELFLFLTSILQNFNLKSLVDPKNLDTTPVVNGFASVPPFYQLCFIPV

[4] = tested on: obese and overweight men with hypogonadism and low total motile sperm count; experiment: Randomized, double-blind phase IIb trial of oral leflutrozole; format: in vivo, human; conditions: for Semen Volume, change from baseline, LS mean difference (95% CI) vs. placebo / Sperm Morphology, change from baseline, LS mean difference (95% CI) vs. placebo / Sperm Motility, change from baseline, LS mean difference (95% CI) vs. placebo / Spermatozoa, change from baseline, LS mean difference (95% CI) vs. placebo / Total Motile Sperm Count, change from baseline, LS mean difference (95% CI) vs. placebo: Week 20; for Estradiol, Initial: baseline; for population with testosterone normalization: day 8 of treatment (2nd visit); for Estradiol, Change: to week 24; for FSH increase / estradiol decrease / mean LH increase: week 24
Protocol: The primary endpoint of the study is a change in testosterone levels after 24 weeks of treatment. […] Normalization of testosterone, for the purposes of this trial, was considered to be between 300 and 1000 ng/dL (10.4 and 35 nmol/L, respectively). Levels above 1000 ng/dL are furthermore considered abnormal.

solubility thermodynamic (Thermodynamic solubility; 0.05 M potassium biphthalate buffer, aqueous buffer, 0.05M buffer pH 3 - Potassium Biphthalate): < 30 µg/mL
solubility thermodynamic (Thermodynamic solubility; 0.05 M potassium chloride buffer, aqueous buffer, 0.05M buffer pH 1 - Potassium Chloride): < 30 µg/mL
solubility thermodynamic (Thermodynamic solubility; 0.05 M potassium phosphate buffer, aqueous buffer, 0.05M buffer pH 6.86 - Potassium Phosphate): < 30 µg/mL
solubility thermodynamic (Thermodynamic solubility; 0.05 M sodium acetate buffer, aqueous buffer, 0.05M buffer pH 4.63 - Sodium Acetate): < 30 µg/mL
solubility thermodynamic (Thermodynamic solubility; 1% Cremophor EL in water, aqueous with cosolvent or surfactant or cyclodextrin): < 30 µg/mL
solubility thermodynamic (Thermodynamic solubility; 1% Tween 80 in water, aqueous with cosolvent or surfactant or cyclodextrin): < 30 µg/mL
solubility thermodynamic (Thermodynamic solubility; 1% sodium dioctyl sulfosuccinate in water, aqueous with cosolvent or surfactant or cyclodextrin): 170 µg/mL (≈ 561 µM)
solubility thermodynamic (Thermodynamic solubility; 1% sodium lauryl sulfate in water, aqueous with cosolvent or surfactant or cyclodextrin): 470 µg/mL (≈ 1550 µM)
solubility thermodynamic (Thermodynamic solubility; 10% Cremophor EL in water, aqueous with cosolvent or surfactant or cyclodextrin): 190 µg/mL (≈ 626 µM)
solubility thermodynamic (Thermodynamic solubility; 10% PEG400 in water, aqueous with cosolvent or surfactant or cyclodextrin): < 30 µg/mL
solubility thermodynamic (Thermodynamic solubility; 10% PG in water, aqueous with cosolvent or surfactant or cyclodextrin): < 30 µg/mL
solubility thermodynamic (Thermodynamic solubility; 10% ethanol in water, aqueous with cosolvent or surfactant or cyclodextrin): < 30 µg/mL
solubility thermodynamic (Thermodynamic solubility; 20% hydroxypropyl β-cyclodextrin in water, aqueous with cosolvent or surfactant or cyclodextrin): 870 µg/mL (≈ 2870 µM)
solubility thermodynamic (Thermodynamic solubility; 20% sulfobutyl ether β-cyclodextrin (Captisol) in water, aqueous with cosolvent or surfactant or cyclodextrin): 1050 µg/mL (≈ 3460 µM)
solubility thermodynamic (Thermodynamic solubility; Cremophor EL, organic solvent or mixture): 280 µg/mL (≈ 923 µM)
solubility thermodynamic (Thermodynamic solubility; FaSSIF): < 30 µg/mL
solubility thermodynamic (Thermodynamic solubility; FeSSIF): < 30 µg/mL
solubility thermodynamic (Thermodynamic solubility; Miglyol, oil or lipid): 720 µg/mL (≈ 2370 µM)
solubility thermodynamic (Thermodynamic solubility; SGF, simulated gastric fluid): < 30 µg/mL
solubility thermodynamic (Thermodynamic solubility; aqueous buffer, 0.05M buffer pH 7.4 - Potassium Phosphate): < 30 µg/mL
solubility thermodynamic (Thermodynamic solubility; aqueous buffer, 0.05M buffer pH 9 - Boric Acid): < 30 µg/mL
solubility thermodynamic (Thermodynamic solubility; aqueous buffer, pH 12 - 0.1N Sodium Hydroxide): < 30 µg/mL
solubility thermodynamic (Thermodynamic solubility; ethanol, organic solvent or mixture): 3840 µg/mL (≈ 12700 µM)
solubility thermodynamic (Thermodynamic solubility; polyethylene glycol 400, organic solvent or mixture): 6230 µg/mL (≈ 20500 µM)
solubility thermodynamic (Thermodynamic solubility; propylene glycol, organic solvent or mixture): 2270 µg/mL (≈ 7480 µM)
solubility thermodynamic (Thermodynamic solubility; water): < 30 µg/mL
Structure (SMILES): N#Cc1ccc(C(F)(c2ccc(C#N)cc2)n2cncn2)cc1 [Form A leflutrozole, 4-[(4-cyanophenyl)-fluoro-(1,2,4-triazol-1-yl)methyl]benzonitrile]

predominant mechanism of elimination [1]: metabolism
unchanged leflutrozole excreted via urine ([1]; oral dosing): 9%
half-life ([1]; rat, plasma, oral): 78 h
IC50 (CYP3A4/5): > 50 µM
Papp A→B ([2]; read-out: apparent permeability, apical to basolateral): 54.5 ×10⁻⁶ cm/s
Papp B→A ([2]; read-out: apparent permeability, basolateral to apical): 23.2 ×10⁻⁶ cm/s
apparent permeability (in words) (Caco-2 cell model): very high apparent permeability
inhibition of breast cancer resistance protein [3]: not determined to be an inhibitor
IC50 (CYP2C9): > 50 µM
Structure (SMILES): N#Cc1ccc(C(F)(c2ccc(C#N)cc2)n2cncn2)cc1 [leflutrozole, 4-[(4-cyanophenyl)-fluoro-(1,2,4-triazol-1-yl)methyl]benzonitrile]
contribution of efflux transporters such as P-glycoprotein (Caco-2 cell model): no detectable contribution of efflux transporters
Estradiol, Week 24 Measurement ([4]; 0.1 mg): 12.94 pg/mL
subjects with normalized testosterone (300-1000 ng/dL), number ([4]; 0.1 mg weekly, after 24 weeks): 59 subjects
Semen Volume, change from baseline, LS mean difference (95% CI) vs. placebo ([4]; 0.1 mg): 0.7 mL
Sperm Morphology, change from baseline, LS mean difference (95% CI) vs. placebo ([4]; 0.1 mg): −1.9 %
Sperm Motility, change from baseline, LS mean difference (95% CI) vs. placebo ([4]; 0.1 mg): 2.7 %
Spermatozoa, change from baseline, LS mean difference (95% CI) vs. placebo ([4]; 0.1 mg): 130.4 (−65.3, 10^6/ejaculate
Total Motile Sperm Count, change from baseline, LS mean difference (95% CI) vs. placebo ([4]; 0.1 mg): 86.3 (−24.5, 10^6/ejaculate
Estradiol, Initial ([4]; 0.1 mg): 24.69 pg/mL
population with testosterone normalization ([4]; 0.1 mg): 80.6%
Estradiol, Change ([4]; 0.1 mg): -11.75 pg/mL
FSH increase ([4]; 0.1 mg): 4.836 mlU/mL
estradiol decrease ([4]; 0.1 mg): 11.8 pg/mL
mean LH increase ([4]; 0.1 mg): 2.108 mlU/mL
Estradiol, Week 24 Measurement ([4]; 0.3 mg): 11.84 pg/mL
subjects with normalized testosterone (300-1000 ng/dL), number ([4]; 0.3 mg weekly, after 24 weeks): 62 subjects
Semen Volume, change from baseline, LS mean difference (95% CI) vs. placebo ([4]; 0.3 mg): 0.8 mL
Sperm Morphology, change from baseline, LS mean difference (95% CI) vs. placebo ([4]; 0.3 mg): −2.6 %
Sperm Motility, change from baseline, LS mean difference (95% CI) vs. placebo ([4]; 0.3 mg): −0.1 %
Spermatozoa, change from baseline, LS mean difference (95% CI) vs. placebo ([4]; 0.3 mg): 90.2 (−126.5, 10^6/ejaculate
Total Motile Sperm Count, change from baseline, LS mean difference (95% CI) vs. placebo ([4]; 0.3 mg): 54.2 (−77.3, 10^6/ejaculate
Estradiol, Initial ([4]; 0.3 mg): 24.80 pg/mL
population with testosterone normalization ([4]; 0.3 mg): 89.1%
Estradiol, Change ([4]; 0.3 mg): -12.96 pg/mL
FSH increase ([4]; 0.3 mg): 6.183 mlU/mL
estradiol decrease ([4]; 0.3 mg): 13 pg/mL
mean LH increase ([4]; 0.3 mg): 3.560 mlU/mL
Estradiol, Week 24 Measurement ([4]; 1.0 mg): 8.63 pg/mL
subjects with normalized testosterone (300-1000 ng/dL), number ([4]; 1.0 mg weekly, after 24 weeks): 63 subjects
subjects with normalized testosterone (300-1000 ng/dL), percent ([4]; 1.0 mg weekly, after 24 weeks): 94.0%
Semen Volume, change from baseline, LS mean difference (95% CI) vs. placebo ([4]; 1.0 mg): 1.4 mL
Sperm Morphology, change from baseline, LS mean difference (95% CI) vs. placebo ([4]; 1.0 mg): −4.1 %
Sperm Motility, change from baseline, LS mean difference (95% CI) vs. placebo ([4]; 1.0 mg): −1.2 %
Spermatozoa, change from baseline, LS mean difference (95% CI) vs. placebo ([4]; 1.0 mg): 270.1 (65.0, 10^6/ejaculate
Total Motile Sperm Count, change from baseline, LS mean difference (95% CI) vs. placebo ([4]; 1.0 mg): 127.7 (12.6, 10^6/ejaculate
Estradiol, Initial ([4]; 1.0 mg): 23.47 pg/mL
population with testosterone normalization ([4]; 1.0 mg): 89.1%
Estradiol, Change ([4]; 1.0 mg): -14.84 pg/mL
FSH increase ([4]; 1.0 mg): 8.282 mlU/mL
estradiol decrease ([4]; 1.0 mg): 14.8 pg/mL
mean LH increase ([4]; 1.0 mg): 5.209 mlU/mL
primary endpoint (≥75% of subjects with normalization of testosterone by week 24) ([4]; all leflutrozole treatment groups): met in all leflutrozole treatment groups
changes from baseline vs placebo in triglycerides, HbA1c, glucose and C-reactive protein ([4]; during the study, p>0.05): No statistically significant changes
insulin and HOMA-IR compared with placebo ([4]; leflutrozole treatment groups, none met statistical significance): Consistent decreases
semen volume improvement, LS mean difference (95% CI) ([4]; stated as across all active treatment arms): 1.4 (0.4, 2.3) mL
sperm count compared to placebo (in words) ([4]; weeks 12 and 20, all three treatment arms): increases were observed across all three treatment arms compared to placebo
